Data as given in ChEMBL document CHEMBL4715742, “Design, synthesis and cytotoxic activities of novel 2,5-diketopiperazine derivatives” (Eur J Med Chem, 2016).
pIC50: −log10 of the molar value.

Assays:
Type in all cases: functional, cell-based
HT-29 = test: Cytotoxicity against human HT-29 cells assessed as reduction in cell viability measured after 72 hrs by CCK8 assay; conditions: for IC50: ht-29; for pIC50: Homo sapiens, HT-29, 72 h, read-out: IC50
U-937 = test: Cytotoxicity against human U-937 cells assessed as reduction in cell viability measured after 72 hrs by CCK8 assay; conditions: for pIC50: Homo sapiens, U-937, 72 h, read-out: IC50; for IC50: u-937
HL-60 = test: Cytotoxicity against human HL-60 cells assessed as reduction in cell viability measured after 72 hrs by CCK8 assay; conditions: for pIC50: Homo sapiens, HL-60, 72 h, read-out: IC50; for IC50: hl-60
K562 = test: Cytotoxicity against human K562 cells assessed as reduction in cell viability measured after 72 hrs by CCK8 assay; conditions: for pIC50: Homo sapiens, K562, 72 h, read-out: IC50; for IC50: k562
DU-145 = test: Cytotoxicity against human DU-145 cells assessed as reduction in cell viability measured after 72 hrs by CCK8 assay; conditions: for IC50: du-145; for pIC50: Homo sapiens, DU-145, 72 h, read-out: IC50
HeLa = test: Cytotoxicity against human HeLa cells assessed as reduction in cell viability measured after 72 hrs by CCK8 assay; conditions: for IC50: hela; for pIC50: Homo sapiens, HeLa, 72 h, read-out: IC50
MCF7 = test: Cytotoxicity against human MCF7 cells assessed as reduction in cell viability measured after 72 hrs by CCK8 assay; conditions: for IC50: mcf7; for pIC50: Homo sapiens, MCF7, 72 h, read-out: IC50
A549 = test: Cytotoxicity against human A549 cells assessed as reduction in cell viability measured after 72 hrs by CCK8 assay; conditions: for IC50: a549; for pIC50: Homo sapiens, A549, 72 h, read-out: IC50

| SMILES | IC50 (HT-29) | pIC50 (U-937) | pIC50 (HL-60) | pIC50 (K562) | IC50 (DU-145) | IC50 (HeLa) | IC50 (MCF7) | IC50 (A549) | IC50 (U-937) | IC50 (HL-60) | IC50 (K562) | pIC50 (HT-29) | pIC50 (DU-145) | pIC50 (HeLa) | pIC50 (MCF7) | pIC50 (A549) |
| --- | --- | --- | --- | --- | --- | --- | --- | --- | --- | --- | --- | --- | --- | --- | --- | --- |
| C=CCn1c(=O)/c(=C/CCCCCCCCC)[nH]c(=O)/c1=C/c1ccccc1OC | Not Active | 4.73 | 5.47 | 4.98 | Not Active | Not Active | Not Active | Not Active |  |  |  |  |  |  |  |  |
| C=CCn1c(=O)/c(=C/CCCCC)[nH]c(=O)/c1=C/c1cccc(OC)c1 | Not Active |  |  |  | Not Active | Not Active | Not Active | Not Active | Not Active | Not Active | Not Active |  |  |  |  |  |
| C=CCn1c(=O)/c(=C/CCCCCCC)[nH]c(=O)/c1=C/c1ccccc1OC | Not Active |  |  |  | Not Active | Not Active | Not Active | Not Active | Not Active | Not Active | Not Active |  |  |  |  |  |
| C=CCn1c(=O)/c(=C/CCCCCCCCCCCCCCC)[nH]c(=O)/c1=C/c1ccccc1OC | Not Active |  |  |  | Not Active | Not Active | Not Active | Not Active | Not Active | Not Active | Not Active |  |  |  |  |  |
| C=CCn1c(=O)/c(=C/CCCCCCCC)[nH]c(=O)/c1=C/c1cccc(OC)c1 | Not Active |  |  |  | Not Active | Not Active | Not Active | Not Active | Not Active | Not Active | Not Active |  |  |  |  |  |
| C=CCn1c(=O)/c(=C/CCCCCCCC)[nH]c(=O)/c1=C/c1ccccc1OC | Not Active |  |  |  | Not Active | Not Active | Not Active | Not Active | Not Active | Not Active | Not Active |  |  |  |  |  |
| C=CCn1c(=O)/c(=C/CCCCCCCCC)[nH]c(=O)/c1=C/c1cccc(OC)c1 | Not Active |  |  |  | Not Active | Not Active | Not Active | Not Active | Not Active | Not Active | Not Active |  |  |  |  |  |
| C=CCn1c(=O)/c(=C/CCCCCCCCCCCCCCC)[nH]c(=O)/c1=C/c1cccc(OC)c1 | Not Active |  |  |  | Not Active | Not Active | Not Active | Not Active | Not Active | Not Active | Not Active |  |  |  |  |  |
| C=CCn1c(=O)/c(=C/CCCCCCCCC)[nH]c(=O)/c1=C/c1ccc(OC)cc1 | Not Active | 4.99 | 5.28 | 4.93 | Not Active | Not Active | Not Active | Not Active |  |  |  |  |  |  |  |  |
| C=CCn1c(=O)/c(=C/c2cccc(Cl)c2Cl)[nH]c(=O)/c1=C/c1ccccc1OC |  | 6.30 | 5.70 | 6.05 |  |  |  |  |  |  |  | 5.49 | 5.38 | 5.80 | 5.68 | 5.64 |
| C=CCn1c(=O)/c(=C/CCCCCCCCCCC)[nH]c(=O)/c1=C/c1ccc(OC)cc1 | Not Active |  |  |  | Not Active | Not Active | Not Active | Not Active | Not Active | Not Active | Not Active |  |  |  |  |  |
| C=CCn1c(=O)/c(=C/CCCC)[nH]c(=O)/c1=C/c1ccccc1OC |  | 6.05 | 6.30 | 5.85 |  |  |  |  |  |  |  | 5.48 | 5.37 | 5.62 | 5.51 | 5.40 |
| C=CCn1c(=O)/c(=C/CCCCCCCCCCC)[nH]c(=O)/c1=C/c1cccc(OC)c1 | Not Active |  |  |  | Not Active | Not Active | Not Active | Not Active | Not Active | Not Active | Not Active |  |  |  |  |  |
| C=CCn1c(=O)/c(=C/CC)[nH]c(=O)/c1=C/c1ccc(OC)cc1 |  | 5.83 |  | 5.68 |  |  |  |  |  | Not Active |  | 5.38 | 5.05 | 5.34 | 5.37 | 5.21 |
| C=CCn1c(=O)/c(=C/CCCCCCCCCC)[nH]c(=O)/c1=C/c1ccc(OC)cc1 | Not Active |  |  |  | Not Active | Not Active | Not Active | Not Active | Not Active | Not Active | Not Active |  |  |  |  |  |
| C=CCn1c(=O)/c(=C/CCCC)[nH]c(=O)/c1=C/c1cccc(OC)c1 | Not Active |  |  |  | Not Active | Not Active | Not Active | Not Active | Not Active | Not Active | Not Active |  |  |  |  |  |
| C=CCn1c(=O)/c(=C/CC)[nH]c(=O)/c1=C/c1ccccc1OC | Not Active |  |  |  | Not Active | Not Active | Not Active | Not Active | Not Active | Not Active | Not Active |  |  |  |  |  |
| C=CCn1c(=O)/c(=C/CCCCCCC)[nH]c(=O)/c1=C/c1ccc(OC)cc1 |  | 5.96 | 4.55 | 5.82 |  |  |  |  |  |  |  | 5.66 | 5.54 | 5.64 | 5.55 | 5.54 |
| C=CCn1c(=O)/c(=C/CCCCCC)[nH]c(=O)/c1=C/c1ccccc1OC |  | 5.59 | 4.97 | 5.44 |  |  |  |  |  |  |  | 5.01 | 4.95 | 5.15 | 5.03 | 4.86 |
| C=CCn1c(=O)/c(=C/CCCCCCCCCCCCCCC)[nH]c(=O)/c1=C/c1ccc(OC)cc1 | Not Active |  |  |  | Not Active | Not Active | Not Active | Not Active | Not Active | Not Active | Not Active |  |  |  |  |  |
| C=CCn1c(=O)/c(=C/CCC)[nH]c(=O)/c1=C/c1ccccc1OC |  | 5.19 | 4.69 | 5.07 | Not Active |  |  | Not Active |  |  |  | 4.54 |  | 4.67 | 4.95 |  |
| C=CCn1c(=O)/c(=C/CCC)[nH]c(=O)/c1=C/c1ccc(OC)cc1 |  | 5.66 | 5.21 | 5.54 |  |  |  |  |  |  |  | 5.08 | 4.88 | 5.15 | 5.03 | 4.91 |
